We go through 28 compounds from US8846719B2, “Isoxazolo-pyridine derivatives” (Roche Palo Alto LLC, priority 2007, dated 2014).

Structures are written as SMILES.

The first test concerns the target human GABA A receptor α5β3γ2 (Homo sapiens (Human), UniProt P18507+P31644). Nature of the test: [3H]flumazenil competition binding assay, human GABA A α5β3γ2 receptors expressed in HEK293 cells.
Settings: not given
The gist of the method:
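Ki values, each the mean of two runs, derive from displacement of [3H]flumazenil from human α5β3γ2 GABA A receptors transiently expressed in HEK293 membranes. Binding ran 1 h at 4° C in Krebs-tris, pH 7.5, before filter harvest and scintillation counting.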
Compound `Cc1onc(-c2ccc(F)cc2)c1COc1ccc(C(=O)N2C[C@H]3C[C@@H](C2)O3)cn1` [Example 114, {6-[3-(4-Fluoro-phenyl)-5-methyl-isoxazol-4-ylmethoxy]-pyridin-3-yl}-(1R,5S)-6-oxa-3-aza-bicyclo [3.1.1]hept-3-yl-methanone] showed a Ki of 42.6 nM.

The test is the same for the next values; noted with them: human receptor; displacement of [3H]flumazenil (0.5 nM); means of two determinations; read-out: hKi GABAAa5.
For the compound `Cc1onc(-c2ccccc2F)c1COc1ccc(C(=O)NC2CCOCC2)cn1` [Example 87, 6-[3-(2-Fluoro-phenyl)-5-methyl-isoxazol-4-ylmethoxy]-N-(tetrahydro-pyran-4-yl)-nicotinamide], the Ki amounted to 4.6 nM.

For `COC(=O)c1ccc(OCc2c(-c3cccc(F)c3)noc2C)nc1` [Example 88, 6-[3-(3-Fluoro-phenyl)-5-methyl-isoxazol-4-ylmethoxy]-nicotinic acid methyl ester], the Ki was found to be 17.4 nM.

Consider `Cc1onc(-c2cccc(F)c2)c1COc1ccc(C(=O)NCC(F)(F)F)cn1` [Example 89, 6-[3-(3-Fluoro-phenyl)-5-methyl-isoxazol-4-ylmethoxy]-N-(2,2,2-trifluoro-ethyl)-nicotinamide], for which the Ki turned out to be 3 nM.

On to `Cc1onc(-c2cccc(F)c2)c1COc1ccc(C(=O)NCC2CC2)cn1` [Example 90, N-Cyclopropylmethyl-6-[3-(3-fluoro-phenyl)-5-methyl-isoxazol-4-ylmethoxy]-nicotinamide], for which the Ki turned out to be 3.2 nM.

In the case of `Cc1onc(-c2cccc(F)c2)c1COc1ccc(C(=O)NC(C)C)cn1` [Example 91, 6-[3-(3-Fluoro-phenyl)-5-methyl-isoxazol-4-ylmethoxy]-N-isopropyl-nicotinamide], the Ki was found to be 2.3 nM.

Consider `Cc1onc(-c2cccc(F)c2)c1COc1ccc(C(=O)NC2CC2)cn1` [Example 92, N-Cyclopropyl-6-[3-(3-fluoro-phenyl)-5-methyl-isoxazol-4-ylmethoxy]-nicotinamide], for which the Ki came to 41.3 nM.

As to `Cc1onc(-c2cccc(F)c2)c1COc1ccc(C(=O)NC2CCOCC2)cn1` [Example 93, 6-[3-(3-Fluoro-phenyl)-5-methyl-isoxazol-4-ylmethoxy]-N-(tetrahydro-pyran-4-yl)-nicotinamide], the Ki is 1.7 nM.

As for `Cc1onc(-c2cccc(F)c2)c1COc1ccc(C(=O)N2CCOCC2)cn1` [Example 94, {6-[3-(3-Fluoro-phenyl)-5-methyl-isoxazol-4-ylmethoxy]-pyridin-3-yl}-morpholin-4-yl-methanone], the Ki was found to be 48.1 nM.

Turning to `Cc1onc(-c2cccc(F)c2)c1COc1ccc(C(=O)N2CCSCC2)cn1` [Example 95, {6-[3-(3-Fluoro-phenyl)-5-methyl-isoxazol-4-ylmethoxy]-pyridin-3-yl}-thiomorpholin-4-yl-methanone], the Ki amounted to 45.6 nM.

On to `Cc1onc(-c2cccc(F)c2)c1COc1ccc(C(=O)N2CCS(=O)(=O)CC2)cn1` [Example 96, (1,1-Dioxo-1λ6-thiomorpholin-4-yl)-{6-[3-(3-fluoro-phenyl)-5-methyl-isoxazol-4-ylmethoxy]-pyridin-3-yl}-methanone], for which the Ki was determined as 13.4 nM.

Regarding `COC(=O)c1ccc(OCc2c(-c3cccc(Cl)c3)noc2C)nc1` [Example 97, 6-[3-(3-Chloro-phenyl)-5-methyl-isoxazol-4-ylmethoxy]-nicotinic acid methyl ester], the Ki stood at 27.4 nM.

With `Cc1onc(-c2cccc(Cl)c2)c1COc1ccc(C(=O)NCC(F)(F)F)cn1` [Example 98, 6-[3-(3-Chloro-phenyl)-5-methyl-isoxazol-4-ylmethoxy]-N-(2,2,2-trifluoro-ethyl)-nicotinamide], the Ki came out at 7.8 nM.

As to `Cc1onc(-c2cccc(Cl)c2)c1COc1ccc(C(=O)NCC2CC2)cn1` [Example 99, 6-[3-(3-Chloro-phenyl)-5-methyl-isoxazol-4-ylmethoxy]-N-cyclopropylmethyl-nicotinamide], the Ki was 8.1 nM.

As for `Cc1onc(-c2cccc(Cl)c2)c1COc1ccc(C(=O)NC2CC2)cn1` [Example 100, 6-[3-(3-Chloro-phenyl)-5-methyl-isoxazol-4-ylmethoxy]-N-cyclopropyl-nicotinamide], the Ki amounted to 7.6 nM.

In the case of `Cc1onc(-c2cccc(Cl)c2)c1COc1ccc(C(=O)NC2CCOCC2)cn1` [Example 101, 6-[3-(3-Chloro-phenyl)-5-methyl-isoxazol-4-ylmethoxy]-N-(tetrahydro-pyran-4-yl)-nicotinamide], the Ki amounted to 3.9 nM.

For the compound `Cc1onc(-c2cccc(Cl)c2)c1COc1ccc(C(=O)N2CCS(=O)(=O)CC2)cn1` [Example 102, {6-[3-(3-Chloro-phenyl)-5-methyl-isoxazol-4-ylmethoxy]-pyridin-3-yl}-(1,1-dioxo-1λ6-thiomorpholin-4-yl)-methanone], the Ki stood at 19.5 nM.

Take `COC(=O)c1ccc(OCc2c(-c3ccc(F)cc3)noc2C)nc1` [Example 103, 6-[3-(4-Fluoro-phenyl)-5-methyl-isoxazol-4-ylmethoxy]-nicotinic acid methyl ester]: the Ki turned out to be 16.2 nM.

As to `Cc1onc(-c2ccc(F)cc2)c1COc1ccc(C(=O)O)cn1` [Example 104, 6-[3-(4-Fluoro-phenyl)-5-methyl-isoxazol-4-ylmethoxy]-nicotinic acid], the Ki was 39.5 nM.

`Cc1onc(-c2ccc(F)cc2)c1COc1ccc(C(=O)NCC(F)(F)F)cn1` [Example 105, 6-[3-(4-Fluoro-phenyl)-5-methyl-isoxazol-4-ylmethoxy]-N-(2,2,2-trifluoro-ethyl)-nicotinamide]: the Ki was found to be 1.2 nM.

As for `Cc1onc(-c2ccc(F)cc2)c1COc1ccc(C(=O)NCC2CC2)cn1` [Example 106, N-Cyclopropylmethyl-6-[3-(4-fluoro-phenyl)-5-methyl-isoxazol-4-ylmethoxy]-nicotinamide], the Ki stood at 1.5 nM.

For the compound `Cc1onc(-c2ccc(F)cc2)c1COc1ccc(C(=O)NC(C)C)cn1` [Example 107, 6-[3-(4-Fluoro-phenyl)-5-methyl-isoxazol-4-ylmethoxy]-N-isopropyl-nicotinamide], the Ki is 0.7 nM.

As for `Cc1onc(-c2ccc(F)cc2)c1COc1ccc(C(=O)NC2CC2)cn1` [Example 108, N-Cyclopropyl-6-[3-(4-fluoro-phenyl)-5-methyl-isoxazol-4-ylmethoxy]-nicotinamide], the Ki is 1.1 nM.

Take `Cc1onc(-c2ccc(F)cc2)c1COc1ccc(C(=O)NC2CCOCC2)cn1` [Example 109, 6-[3-(4-Fluoro-phenyl)-5-methyl-isoxazol-4-ylmethoxy]-N-(tetrahydro-pyran-4-yl)-nicotinamide]: the Ki came to 0.8 nM.

In the case of `Cc1onc(-c2ccc(F)cc2)c1COc1ccc(C(=O)N2CCOCC2)cn1` [Example 110, {6-[3-(4-Fluoro-phenyl)-5-methyl-isoxazol-4-ylmethoxy]-pyridin-3-yl}-morpholin-4-yl-methanone], the Ki is 13 nM.

With `Cc1onc(-c2ccc(F)cc2)c1COc1ccc(C(=O)N2CCSCC2)cn1` [Example 111, {6-[3-(4-Fluoro-phenyl)-5-methyl-isoxazol-4-ylmethoxy]-pyridin-3-yl}-thiomorpholin-4-yl-methanone], the Ki worked out at 10.4 nM.

`Cc1onc(-c2ccc(F)cc2)c1COc1ccc(C2(O)COC2)cn1` [Example 113, 3-{6-[3-(4-Fluoro-phenyl)-5-methyl-isoxazol-4-ylmethoxy]-pyridin-3-yl}-oxetan-3-ol]: the Ki came to 20.9 nM.

Consider `COC(=O)c1ccc(OCc2c(-c3ccc(Cl)cc3)noc2C)nc1` [Example 115, 6-[3-(4-Chloro-phenyl)-5-methyl-isoxazol-4-ylmethoxy]-nicotinic acid methyl ester], for which the Ki was 4.5 nM.
